Literature values, collected in patent publication US20150018665A1, “MOLECULAR AND CELLULAR IMAGING USING ENGINEERED HEMODYNAMIC RESPONSES” (Massachusetts Institute of Technology, priority 2013, published 2015).

Molecular target: nNOS (Homo sapiens, UniProt P29475)
Settings: blockade of nNOS

Chain of nNOS (P29475 whole entry, species assumed): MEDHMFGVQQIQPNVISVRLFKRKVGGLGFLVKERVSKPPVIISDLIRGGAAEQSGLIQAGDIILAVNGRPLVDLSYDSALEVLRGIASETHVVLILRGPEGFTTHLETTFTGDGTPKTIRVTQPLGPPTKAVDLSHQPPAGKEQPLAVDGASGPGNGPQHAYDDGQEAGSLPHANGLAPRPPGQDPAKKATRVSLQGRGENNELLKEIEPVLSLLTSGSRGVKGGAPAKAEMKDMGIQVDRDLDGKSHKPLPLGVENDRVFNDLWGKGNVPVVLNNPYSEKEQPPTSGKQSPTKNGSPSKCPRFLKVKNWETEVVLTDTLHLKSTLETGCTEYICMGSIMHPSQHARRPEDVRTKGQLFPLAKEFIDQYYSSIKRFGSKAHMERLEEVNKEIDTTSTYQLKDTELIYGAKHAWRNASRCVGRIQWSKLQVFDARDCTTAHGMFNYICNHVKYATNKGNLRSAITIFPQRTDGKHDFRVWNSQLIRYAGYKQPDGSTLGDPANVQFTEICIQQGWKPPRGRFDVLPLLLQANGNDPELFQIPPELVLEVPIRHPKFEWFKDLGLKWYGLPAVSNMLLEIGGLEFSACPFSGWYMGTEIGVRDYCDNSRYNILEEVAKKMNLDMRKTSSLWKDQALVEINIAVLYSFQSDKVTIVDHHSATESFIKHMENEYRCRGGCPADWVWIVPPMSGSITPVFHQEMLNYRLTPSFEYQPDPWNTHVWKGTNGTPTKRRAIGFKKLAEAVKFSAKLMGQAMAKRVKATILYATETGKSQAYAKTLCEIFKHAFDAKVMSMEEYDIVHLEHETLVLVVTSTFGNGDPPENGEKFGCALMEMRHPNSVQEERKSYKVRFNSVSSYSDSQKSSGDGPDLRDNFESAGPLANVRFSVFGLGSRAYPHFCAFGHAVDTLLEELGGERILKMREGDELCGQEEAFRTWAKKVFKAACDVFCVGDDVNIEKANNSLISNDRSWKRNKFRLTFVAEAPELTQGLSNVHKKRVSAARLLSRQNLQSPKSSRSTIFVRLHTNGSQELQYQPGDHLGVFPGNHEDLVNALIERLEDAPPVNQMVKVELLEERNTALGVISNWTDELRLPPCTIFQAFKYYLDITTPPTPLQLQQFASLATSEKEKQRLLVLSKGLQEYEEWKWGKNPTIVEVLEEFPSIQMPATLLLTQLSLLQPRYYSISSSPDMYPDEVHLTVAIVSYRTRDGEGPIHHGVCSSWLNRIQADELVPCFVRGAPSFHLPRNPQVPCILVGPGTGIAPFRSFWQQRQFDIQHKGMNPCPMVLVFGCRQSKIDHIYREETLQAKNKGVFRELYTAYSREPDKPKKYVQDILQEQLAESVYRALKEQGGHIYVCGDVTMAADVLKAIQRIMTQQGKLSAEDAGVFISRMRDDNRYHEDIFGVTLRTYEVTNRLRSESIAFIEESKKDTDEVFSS

## NC(=NCCC[C@H](N)C(=O)O)N[N+](=O)[O-] [L-nitroarginine]
  effect on fMRI-detectable responses to stimulation: abolishes or sharply reduces
